{"source": "paper PMC10796436", "about": "“Peptidyl nitroalkene inhibitors of main protease rationalized by computational and crystallographic investigations as antivirals against SARS-CoV-2” (Communications Chemistry, 2024)", "key": {"[1]": {"test": "Stability in TRIS buffer pH 7.5 by LCMS (warhead hydration)", "assay_type": "physicochemical", "method": "(50 mM, pH 7.5), stored at ca. 30 °C and repeatedly analyzed by LCMS (stability in buffer). […]\nAnalysis was performed using Mestrenova. LCMS setup: Agilent 1100 series HPLC system coupled to an Agilent 1100 series LC/MSD Trap with electron spray ionization (ESI) , Agilent Poroshell 120 EC-C18, 150x2.10 mm, 4 μm column. A linear gradient was used for elution with a ternary pump using [water/ACN/water + 0.1% formic acid] that changes ratios from 80/10/10 to 0/90/10 over the course of 10 min (0.7 mL/min). Areas of peaks in the chromatogram (detection-λ = 326 nm) were used to calculate the change in concentrations. Retention time and mass spectrum recorded in positive ionization mode were used to assign species.\nIn preparation of experiments with longer incubation periods (metabolic stability, permeability etc.), first general stability in aqueous systems is to be assessed. For this, a TRIS/HCl buffer system at physiological pH was chosen.\nIn all measurements, only two relevant “species” of FGA146 are identifiable by mass spectrometry: m/z[M+H2O+H]+ = 504 with tR = 4.8 min and m/z[M+H]+ = 486 with tR = 5.1 min.\nFor quantification by UV AUC, 326 nm is used as detection wavelength. Wavelengths ≤255 nm are unsuitable since extinction coefficients of free and hydrated warhead seem to vastly differ.\nTable 10. […] For exemplary depiction of chromatograms that were used to generate this table, compare Figure SX below. […]\ntR = 4.8 min tR = 5.1 min m/z[M+H2O+H]+ = 504 m/z[M+H]+ = 486"}, "Huh-7-ACE2 cells": {"system": "Huh-7-ACE2 cells", "details": "24h"}, "[2]": {"test": "logP determination by HPLC", "assay_type": "physicochemical", "details": "HPLC retention time", "protocol": "experimental logP was determined. After unsuccessful evaluation by a classical extraction method\nfor determination, an HPLC-based estimation of hydrophobicity by retention time was utilized.\nFollowing a publication60, a set of 9 compounds was chosen for preparing a calibration curve of\nhydrophobicity indices and logPs.\nλ = 254 nm, n = 1). Calibration of hydrophobicity was performed with a mixture of thiourea (Merck\nFisher Scientific, A12727.AP), Indole (Sigma Aldrich, W259306), Butyrophenone (Merck\n1 mg/mL each in 50:50 [50 mM NH4OAc buffer pH 7.2/ACN]60 (n = 1). Analysis was performed\nwas used for elution with a binary pump using [50 mM NH4OAc buffer pH 7.2/ACN] (1 mL/min):\nFor calculation of unknown logP with this method, the following equation is used:\nSignals at 6 and >14 min are due to impurities from\ncolumn that are detected in all measurements and are therefore not taken into account."}, "Permeability, PAMPA": {"test": "Permeability, PAMPA", "assay_type": "in vitro ADME", "details": "UV-quantified, 2–7 h", "method": "Permeability. General principle after Lit.66 Incubation setup: donor (top) plate (Sigma Aldrich, MAIPNTR10), 5 µL artificial membrane (1 % (w/v) L-α-Phosphatidylcholin, Sigma Aldrich P3556, in n-dodecane, Sigma Aldrich 8205430100), acceptor (bottom) plate (Greiner, 655074).\nMeasurement setup – UV spectroscopy: UV-transparent measurement plate (Greiner UV-Star®, 655801), Tecan Spark® well plate reader, 200 µL sample volume, λ = 200–650 nm. Analysis was performed with AUC function in GraphPad Prism using the indicated wavelength range.\nSigma D5652; pH 7.4 or TRIS 50 mM pH 7.4) aqueous solution with varying final contents of ACN or DMSO as indicated. (“donor solution”). Similarly prepared solutions (buffer + solvent) were used as “acceptor solutions”. 150 µL of donor solution was applied onto the artificial membrane which was applied first to the donor plate. This was sealed (Greiner, 676070, Viewseal sealer). 400 µL of acceptor solution was applied to the acceptor plate. […] After this time, acceptor solution was analyzed with UV spectroscopy. Reference solutions were prepared by simply mixing the indicated volumes of donor and acceptor solutions at the start of the incubation period and analyzed later with the acceptor solutions. […]\nAfter the incubation period, the reference solution was analyzed by LCMS as described under […]\nNo permeation can be observed in any of the UV-quantified experiments. […]"}, "M^pro": {"molecular_target": "M^pro (Severe acute respiratory syndrome coronavirus 2, UniProt P0DTD1)", "test": "Binding to M^pro by ITC", "set-up": "DP / DH: unit not given here"}}, "note": "“And” between values parts separate entries of the source, which are not always exact repeats. Identical values can stand only once.", "data": [{"smiles": "COc1cccc2[nH]c(C(=O)N[C@@H](CC(C)C)C(=O)N[C@H](/C=C/[N+](=O)[O-])C[C@@H]3CCNC3=O)cc12", "note": "[FGA146]", "values": [{"measurement": "equilibrium hydrated to free warhead", "setting": "[1]; TRIS buffer pH 7.5, ca. 30 °C", "result": "85/15"}, {"measurement": "time to 50% conversion to hydrated warhead", "setting": "[1]; TRIS buffer pH 7.5, ca. 30 °C", "result": 1, "unit": "h"}, {"measurement": "time until hydration equilibrium is reached", "setting": "[1]; TRIS buffer pH 7.5, ca. 30 °C", "result": 4, "unit": "h"}, {"measurement": "AUCpeak1/AUCTotal (hydrated, m/z 504)", "setting": "[1]; t 0 h", "result": 10, "unit": "%"}, {"measurement": "AUCpeak2/AUCTotal (intact, m/z 486)", "setting": "[1]; t 0 h", "result": 90, "unit": "%"}, {"measurement": "AUCpeak1/AUCTotal (hydrated, m/z 504)", "setting": "[1]; t 0.25 h", "result": 20, "unit": "%"}, {"measurement": "AUCpeak2/AUCTotal (intact, m/z 486)", "setting": "[1]; t 0.25 h", "result": 80, "unit": "%"}, {"measurement": "AUCpeak1/AUCTotal (hydrated, m/z 504)", "setting": "[1]; t 0.5 h", "result": 34, "unit": "%"}, {"measurement": "AUCpeak2/AUCTotal (intact, m/z 486)", "setting": "[1]; t 0.5 h", "result": 66, "unit": "%"}, {"measurement": "AUCpeak1/AUCTotal (hydrated, m/z 504)", "setting": "[1]; t 1 h", "result": "47% and 53%"}, {"measurement": "AUCpeak2/AUCTotal (intact, m/z 486)", "setting": "[1]; t 1 h", "result": "47% and 53%"}, {"measurement": "AUCpeak1/AUCTotal (hydrated, m/z 504)", "setting": "[1]; t 3 h", "result": 78, "unit": "%"}, {"measurement": "AUCpeak2/AUCTotal (intact, m/z 486)", "setting": "[1]; t 3 h", "result": 22, "unit": "%"}, {"measurement": "AUCpeak1/AUCTotal (hydrated, m/z 504)", "setting": "[1]; t 4 h", "result": 83, "unit": "%"}, {"measurement": "AUCpeak2/AUCTotal (intact, m/z 486)", "setting": "[1]; t 4 h", "result": 17, "unit": "%"}, {"measurement": "AUCpeak1/AUCTotal (hydrated, m/z 504)", "setting": "[1]; t 5 h", "result": 85, "unit": "%"}, {"measurement": "AUCpeak2/AUCTotal (intact, m/z 486)", "setting": "[1]; t 5 h", "result": 15, "unit": "%"}, {"measurement": "AUCpeak1/AUCTotal (hydrated, m/z 504)", "setting": "[1]; t 7 h", "result": 85, "unit": "%"}, {"measurement": "AUCpeak2/AUCTotal (intact, m/z 486)", "setting": "[1]; t 7 h", "result": 14, "unit": "%"}, {"measurement": "AUCpeak1/AUCTotal (hydrated, m/z 504)", "setting": "[1]; t 30 h", "result": 83, "unit": "%"}, {"measurement": "AUCpeak2/AUCTotal (intact, m/z 486)", "setting": "[1]; t 30 h", "result": 14, "unit": "%"}, {"measurement": "AUCpeak1/AUCTotal (hydrated, m/z 504)", "setting": "[1]; t 31 h", "result": 83, "unit": "%"}, {"measurement": "AUCpeak2/AUCTotal (intact, m/z 486)", "setting": "[1]; t 31 h", "result": 14, "unit": "%"}, {"measurement": "conversion to hydrated warhead", "setting": "[1]; time to LCMS (<10 min)", "result": 10, "unit": "%"}, {"measurement": "CC50", "setting": "Huh-7-ACE2 cells", "result": "> 100000", "unit": "nM"}, {"measurement": "logPexp", "setting": "[2]", "result": 2.0}, {"measurement": "permeation", "setting": "Permeability, PAMPA", "result": "No permeation"}]}, {"smiles": "CC(C)C[C@H](NC(=O)OCc1ccccc1)C(=O)N[C@H](/C=C/[N+](=O)[O-])C[C@@H]1CCNC1=O", "note": "[FGA147]", "values": [{"measurement": "Kd", "setting": "M^pro; ITC, 25 °C", "result": "2860 ± 250", "unit": "nM"}, {"measurement": "DH", "setting": "M^pro; Molar ratio 0.39455", "result": -0.9026}, {"measurement": "DH", "setting": "M^pro; Molar ratio 0.72682", "result": -0.8799}, {"measurement": "DH", "setting": "M^pro; Molar ratio 1.06223", "result": -0.8369}, {"measurement": "DP", "setting": "M^pro; Time 0.08333 min", "result": -0.00244}, {"measurement": "DP", "setting": "M^pro; Time 0.10000 min", "result": -0.00119}, {"measurement": "DP", "setting": "M^pro; Time 0.11667 min", "result": -0.00067}]}]}
